# Laboratory results reported in patent US8003785B2 (Takeda Pharmaceutical Company Limited, priority 2008, dated 2011).
# pIC50: −log10 of the molar value.
# Molecular target: T1, PLK1 (Homo sapiens, UniProt P53350)
# T1 construct: Full-length, active GST-PLK1 is purified from Sf9 insect cells; made in house; host or cells: Sf9 insect cells
# Assay: Biochemical Characterization Assay: HTRF kinase assay, GST-PLK1 phosphorylation of GST-p53
# Conditions: GST-PLK1, GST-p53 substrate
# Procedure, shortened: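 HTRF read-out of p53 phosphorylation: after EDTA stop, anti-phospho-p53 antibody bound 30 min at 37 °C in HEPES pH 7 buffer, with Eu-anti-rabbit/APC-anti-GST detection. Kinase step used full-length Sf9-expressed GST-PLK1 (3 ug/mL) and E. coli GST-p53 substrate, 35 min at 37 °C.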
# T1 sequence (P53350 whole entry): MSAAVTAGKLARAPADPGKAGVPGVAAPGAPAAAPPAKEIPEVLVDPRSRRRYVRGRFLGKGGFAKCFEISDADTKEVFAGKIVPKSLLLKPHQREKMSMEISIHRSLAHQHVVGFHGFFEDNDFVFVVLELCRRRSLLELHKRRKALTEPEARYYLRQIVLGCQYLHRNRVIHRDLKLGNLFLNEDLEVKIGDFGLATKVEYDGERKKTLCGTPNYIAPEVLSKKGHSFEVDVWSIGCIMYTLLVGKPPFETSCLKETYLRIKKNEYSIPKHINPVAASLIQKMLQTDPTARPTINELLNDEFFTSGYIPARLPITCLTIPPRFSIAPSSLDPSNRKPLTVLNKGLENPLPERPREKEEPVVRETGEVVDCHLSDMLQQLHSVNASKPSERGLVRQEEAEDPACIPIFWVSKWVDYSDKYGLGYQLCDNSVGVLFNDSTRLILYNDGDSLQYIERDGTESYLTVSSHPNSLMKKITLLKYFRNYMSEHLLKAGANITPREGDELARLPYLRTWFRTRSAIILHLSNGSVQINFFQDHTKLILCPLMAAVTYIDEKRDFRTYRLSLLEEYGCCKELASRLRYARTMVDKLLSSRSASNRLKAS
row,Compound,pIC50
1,"CCc1cc(C(=O)NCCN(C)C)ccc1Nc1ncc2c(n1)N(C1CCCC1)CC(F)(F)C(=O)N2C [Example I-198, 4-(9-cyclopentyl-7,7-difluoro-5-methyl-6-oxo-6,7,8,9-tetrahydro-5H-pyrimido[4,5-b][1,4]diazepin-2-ylamino)-N-(2-dimethylamino-ethyl)-3-ethyl-benzamide]",7.30 to 9.00
2,"CCc1cc(C(=O)NCCCN(C)C)ccc1Nc1ncc2c(n1)N(C1CCCC1)CC(F)(F)C(=O)N2C [Example I-199, 4-(9-cyclopentyl-7,7-difluoro-5-methyl-6-oxo-6,7,8,9-tetrahydro-5H-pyrimido[4,5-b][1,4]diazepin-2-ylamino)-N-(3-dimethylamino-propyl)-3-ethyl-benzamide]",7.30 to 9.00
3,"CCc1cc(C(=O)NC)ccc1Nc1ncc2c(n1)N(C1CCCC1)CC(F)(F)C(=O)N2C [Example I-200, 4-(9-cyclopentyl-7,7-difluoro-5-methyl-6-oxo-6,7,8,9-tetrahydro-5H-pyrimido[4,5-b][1,4]diazepin-2-ylamino)-3-ethyl-N-methyl-benzamide]",7.30 to 9.00
4,"CCc1cc(C(=O)NC2CCN(C(=O)OC(C)(C)C)CC2)ccc1Nc1ncc2c(n1)N(C1CCCC1)CC(F)(F)C(=O)N2C [Example I-201, 4-[4-(9-cyclopentyl-7,7-difluoro-5-methyl-6-oxo-6,7,8,9-tetrahydro-5H-pyrimido[4,5-b][1,4]diazepin-2-ylamino)-3-ethyl-benzoylamino]-piperidine-1-carboxylic acid tert-butyl ester]",6.30 to 7.29
5,"CCc1cc(C(=O)NC2CCNCC2)ccc1Nc1ncc2c(n1)N(C1CCCC1)CC(F)(F)C(=O)N2C [Example I-202, 4-(9-cyclopentyl-7,7-difluoro-5-methyl-6-oxo-6,7,8,9-tetrahydro-5H-pyrimido[4,5-b][1,4]diazepin-2-ylamino)-3-ethyl-N-piperidin-4-yl-benzamide]",7.30 to 9.00

# Continued, values first:
row,pIC50,Compound
1,7.30 to 9.00,CCc1cc(C(N)=O)ccc1Nc1ncc2c(n1)N(C1CCCC1)CC(F)(F)C(=O)N2C [Example I-203]
2,7.30 to 9.00,"CCN1CCC(NC(=O)c2ccc(Nc3ncc4c(n3)N(C3CCCC3)CC(F)(F)C(=O)N4C)c(C(F)(F)F)c2)CC1 [Example I-206, 4-(9-cyclopentyl-7,7-difluoro-5-methyl-6-oxo-6,7,8,9-tetrahydro-5H-pyrimido[4,5-b][1,4]diazepin-2-ylamino)-N-(1-ethyl-piperidin-4-yl)-3-trifluoromethyl-benzamide]"
3,6.30 to 7.29,"CN1C(=O)C(F)(F)CN(C2CCCC2)c2nc(Nc3ccc(C(=O)NC4CCOCC4)cc3C(F)(F)F)ncc21 [Example I-207, 4-(9-cyclopentyl-7,7-difluoro-5-methyl-6-oxo-6,7,8,9-tetrahydro-5H-pyrimido[4,5-b][1,4]diazepin-2-ylamino)-N-(tetrahydro-pyran-4-yl)-3-trifluoromethyl-benzamide]"
4,6.30 to 7.29,"CN(C)CCNC(=O)c1ccc(Nc2ncc3c(n2)N(C2CCCC2)CC(F)(F)C(=O)N3C)c(C(F)(F)F)c1 [Example I-208, 4-(9-cyclopentyl-7,7-difluoro-5-methyl-6-oxo-6,7,8,9-tetrahydro-5H-pyrimido[4,5-b][1,4]diazepin-2-ylamino)-N-(2-dimethylamino-ethyl)-3-trifluoromethyl-benzamide]"
5,7.30 to 9.00,"CN(C)CCCNC(=O)c1ccc(Nc2ncc3c(n2)N(C2CCCC2)CC(F)(F)C(=O)N3C)c(C(F)(F)F)c1 [Example I-209, 4-(9-cyclopentyl-7,7-difluoro-5-methyl-6-oxo-6,7,8,9-tetrahydro-5H-pyrimido[4,5-b][1,4]diazepin-2-ylamino)-N-(3-dimethylamino-propyl)-3-trifluoromethyl-benzamide]"
6,6.30 to 7.29,"CNC(=O)c1ccc(Nc2ncc3c(n2)N(C2CCCC2)CC(F)(F)C(=O)N3C)c(C(F)(F)F)c1 [Example I-210, 4-(9-cyclopentyl-7,7-difluoro-5-methyl-6-oxo-6,7,8,9-tetrahydro-5H-pyrimido[4,5-b][1,4]diazepin-2-ylamino)-N-methyl-3-trifluoromethyl-benzamide]"
